The target of experiment [1] is T1, Aβ aggregates (Homo sapiens, UniProt P05067).
T1 construct: compound and antibody double staining of Aβ or tau aggregates; from tissue; host or cells: human AD brain tissue sections (20 μm)
Description: Compound and antibody 4G8 double staining of AD brain tissue sections. The format is binding. The conditions noted are these: for Overlap between Fluorescence from tested compound and fluorescence from 4G8 observed / Fluorescence from tested compound observed / Staining of / selectivity for Aβ and tau aggregates in AD brain sections: 100 nM compound; for Overlap between Fluorescence from tested compound and fluorescence from 4G8 observed / Fluorescence from tested compound observed: human AD brain tissue sections; for Overlap between Fluorescence from tested compound and fluorescence from 4G8 observed: Aβ antibody 4G8; for Fluorescence from tested compound observed: double staining with Aβ antibody 4G8; for Fluorescence from 4G8 observed: signal of Aβ antibody 4G8 in the section stained with 100 nM of the compound; for Staining of / selectivity for Aβ and tau aggregates in AD brain sections: stained in combination with 4G8. The procedure: (§1) To achieve compound and antibody double staining of Aβ or tau aggregates, tissue sections (20 μm) from human AD brain were fixed in 70% EtOH at 4° C. for 3 min, rehydrated in distilled water and then incubated in PBS for 30 min. Sections were blocked and permeabilized in PBS with 5% normal goat serum and 0.1% triton X-100 (blocking buffer) for 1 h at room temperature (RT). Antibody 4G8 (Biolegend, San Diego, Calif., USA) reactive to Aβ, and AT100 (Thermo Fisher Scientific, Waltham, Mass., USA) directed against tau phosphorylated at […] (3) were diluted 1:500 and 1:1000, respectively, in blocking buffer and added to the sections. After 16 h incubation at 4° C. unbound antibody was removed by washing in PBS with 0.1% triton X-100 (PBS-T) 3×10 min. To visualize antibody binding to Aβ or tau aggregates sections were incubated with goat anti-mouse secondary antibody labelled with Alexa 647 (Thermo Fisher Scientific). The antibody was diluted 1:200 in blocking buffer and after 1 h incubation at RT sections were washed in PBS 3×10 min. Example Compound 3a, Example Compound 3b, Example Compound 3c, Example Compound 3d, Example Compound 3e, Example Compound 3f, Example Compound 3g, Example Compound 3h, Example Compound 3i, Example Compound 3j, Example Compound 3k, Example Compound 3m, Example Compound 3n, Example Compound 3o, Example Compound 3p, Example Compound 3q, Example Compound 3r, Example Compound 3s, Example Compound 3t, Example Compound 3u, Example Compound 8a, Comparative Example 1, Comparative Example 2, Comparative Example 3 and Comparative Example 4 were dissolved in DMSO to a concentration of 1.5 mM and then further diluted in PBS to a final concentration of 100 nM compound prior to staining. The tissue sections were then stained for 30 min at RT with these freshly prepared solutions containing 100 nM of the respective compound in PBS. After three washes in PBS the sections were mounted in Dako mounting medium for fluorescence (Dako Cytomation, Glostrup, Denmark) and allowed to dry overnight before analysis. Fluorescence images were collected using an inverted LSM 780 confocal microscope (Carl Zeiss, Oberkochen, Germany) with the following excitation/emission wavelengths optimized for each compound: 458/484-600 (Comparative Example 1, Comparative Example 3), 561/569-648 (Example Compound 3a, Example Compound 3b, Example Compound 3c, Example Compound 3d, Example Compound 3e, Example Compound 3f, Example Compound 3g, Example Compound 3h, Example Compound 3i, Example Compound 3j, Example Compound 3k, Example Compound 3m, Example Compound 3n, Example Compound 3o, Example Compound 3p, Example Compound 3q, Example Compound 3r, Example Compound 3s, Example Compound 3t, Example Compound 3u, Example Compound 8a, Comparative Example 2 and Comparative Example 4) and 633/638-755 (Alexa 647). To visualize autofluorescent lipofuscin excitation/emission wavelengths 405/410-480 or 405/410-514 were used.

Experiment [2] deals with T2, tau aggregates (Homo sapiens, UniProt P10636).
T2 construct: tissue sections (20 μm) from human AD brain; from tissue; host or cells: human AD brain tissue sections (20 μm)
Description: Compound and antibody AT100 double staining of AD brain tissue sections. The format is binding. The conditions noted are these: for Labelling of immune-positive NFTs and dystrophic neurites / Fluorescence from tested compound observed / Overlap between Fluorescence from tested compound and fluorescence from AT-100 observed: 100 nM compound; for Labelling of immune-positive NFTs and dystrophic neurites: AT100 co-staining, AD brain sections; for Fluorescence from tested compound observed / Overlap between Fluorescence from tested compound and fluorescence from AT-100 observed: human AD brain tissue sections; for Fluorescence from tested compound observed: double staining with tau antibody AT-100; for Overlap between Fluorescence from tested compound and fluorescence from AT-100 observed: tau antibody AT-100; for Fluorescence from AT-100 observed: signal of tau antibody AT-100 in the section stained with 100 nM of the compound. As for the experimental part:
as §1

Entries after “also recorded” stand apart in the source; their conditions may differ.

T1 sequence (P05067 672-713 limits assumed): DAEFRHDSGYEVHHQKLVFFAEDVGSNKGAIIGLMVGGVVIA
T2 sequence (P10636 1-441 isoform P10636-8): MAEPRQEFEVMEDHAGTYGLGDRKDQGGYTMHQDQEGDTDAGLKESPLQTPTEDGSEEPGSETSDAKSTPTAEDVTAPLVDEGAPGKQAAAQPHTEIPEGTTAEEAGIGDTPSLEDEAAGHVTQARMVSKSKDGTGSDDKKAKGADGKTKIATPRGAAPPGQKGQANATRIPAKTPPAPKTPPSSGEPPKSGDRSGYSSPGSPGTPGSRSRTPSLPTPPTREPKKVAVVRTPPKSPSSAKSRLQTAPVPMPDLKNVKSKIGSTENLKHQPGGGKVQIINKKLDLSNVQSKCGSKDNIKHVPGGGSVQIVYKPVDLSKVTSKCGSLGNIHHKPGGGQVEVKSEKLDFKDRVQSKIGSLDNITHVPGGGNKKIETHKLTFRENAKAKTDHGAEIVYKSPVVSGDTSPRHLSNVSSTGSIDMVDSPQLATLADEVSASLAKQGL

As to `CC[n+]1c(/C=C/c2ccc(-c3cccc4nsnc34)s2)sc2ccccc21.[I-]` [Example Compound 3o], in experiment [1], the “Overlap between Fluorescence from tested compound and fluorescence from 4G8 observed” value (“Overlap between Fluorescence … from 4G8 observed” for short) is “no correlation and no”; the “Fluorescence from tested compound observed” value is given as “yes”; the “Fluorescence from 4G8 observed” value is listed as “yes”. For the same molecule, in experiment [2], the “Labelling of immune-positive NFTs and dystrophic neurites” value (“Labelling” below) is “labelled both immune-positive NFTs and dystrophic neurites”; the “Fluorescence from tested compound observed” value is recorded as “yes”; the “Overlap between Fluorescence from tested compound and fluorescence from AT-100 observed” value was “yes”; the “Fluorescence from AT-100 observed” value was “yes”.

As for `CC[n+]1c(/C=C/c2ccc(-c3ccc(CC(=O)OC)s3)s2)sc2ccccc21.[I-]` [Example Compound 3d], in experiment [1], the “Overlap between Fluorescence … from 4G8 observed” value is “no correlation and no”; the “Fluorescence from tested compound observed” value is given as “yes”; the “Fluorescence from 4G8 observed” value is recorded as “yes”. In experiment [2], the “Labelling” value was “labelled both immune-positive NFTs and dystrophic neurites”; the “Fluorescence from tested compound observed” value was “yes”; the “Overlap between Fluorescence from tested compound and fluorescence from AT-100 observed” value was “yes”; the “Fluorescence from AT-100 observed” value was “yes”.

With `COC(=O)c1csc(-c2ccc(-c3ccc(-c4nc5ccccc5s4)s3)s2)c1` [Comparative Example 4], in experiment [1], the “Fluorescence from tested compound observed” value was “no”; the “Staining of / selectivity for Aβ and tau aggregates in AD brain sections” value (from here on “Staining of / selectivity”) was “did not display any substantial staining; also recorded: no staining”; the “Fluorescence from 4G8 observed” value is recorded as “yes”.

Regarding `CC[n+]1c(/C=C/c2ccc(-c3ccc(C(=O)OC)[se]3)s2)[se]c2ccc(OC)cc21.[I-]` [Example Compound 3p], in experiment [1], the “Overlap between Fluorescence … from 4G8 observed” value was “no correlation and no”; the “Fluorescence from tested compound observed” value is “yes”; the “Fluorescence from 4G8 observed” value is on record as “yes”. In experiment [2], the “Labelling” value was “labelled both immune-positive NFTs and dystrophic neurites”; the “Fluorescence from tested compound observed” value is listed as “yes”; the “Overlap between Fluorescence from tested compound and fluorescence from AT-100 observed” value was “yes”; the “Fluorescence from AT-100 observed” value is “yes”.

Consider `CC[n+]1c(/C=C/c2ccc(-c3ccc(C(=O)OC)o3)o2)sc2ccccc21.[I-]` [Example Compound 3i], for which, in experiment [1], the “Overlap between Fluorescence … from 4G8 observed” value is “no correlation and no”; the “Fluorescence from tested compound observed” value was “yes”; the “Fluorescence from 4G8 observed” value is “yes”. In experiment [2], the “Labelling” value was “labelled both immune-positive NFTs and dystrophic neurites”; the “Fluorescence from tested compound observed” value is recorded as “yes”; the “Overlap between Fluorescence from tested compound and fluorescence from AT-100 observed” value is reported as “yes”; the “Fluorescence from AT-100 observed” value was “yes”.

Take `COC(=O)Cc1cc(-c2ccc(-c3nc4ccccc4s3)s2)sc1-c1cc(C(=O)OC)cs1` [Comparative Example 2]: in experiment [1], the “Fluorescence from tested compound observed” value was “no”; the “Staining of / selectivity” value is given as “did not display any substantial staining; also recorded: no staining”; the “Fluorescence from 4G8 observed” value is recorded as “yes”.

As for `CC[n+]1c(/C=C/c2cnc(-c3ccc(C(=O)OC)s3)s2)sc2ccccc21.[I-]` [Example Compound 3j], in experiment [1], the “Overlap between Fluorescence … from 4G8 observed” value was “no correlation and no”; the “Fluorescence from tested compound observed” value is “yes”; the “Fluorescence from 4G8 observed” value is “yes”. In experiment [2], the “Labelling” value was “labelled both immune-positive NFTs and dystrophic neurites”; the “Fluorescence from tested compound observed” value is “yes”; the “Overlap between Fluorescence from tested compound and fluorescence from AT-100 observed” value was “yes”; the “Fluorescence from AT-100 observed” value is listed as “yes”.

As to `CC[n+]1c(/C=C/c2ccc(-c3ccc(C#N)s3)s2)sc2ccccc21.[I-]` [Example Compound 3t], in experiment [1], the “Overlap between Fluorescence … from 4G8 observed” value is “no correlation and no”; the “Fluorescence from tested compound observed” value was “yes”; the “Fluorescence from 4G8 observed” value is “yes”. Moreover, in experiment [2], the “Labelling” value was “labelled both immune-positive NFTs and dystrophic neurites”; the “Fluorescence from tested compound observed” value is “yes”; the “Overlap between Fluorescence from tested compound and fluorescence from AT-100 observed” value is listed as “yes”; the “Fluorescence from AT-100 observed” value is “yes”.

Take `COC(=O)c1ccc(-c2ccc(/C=C/c3sc4ccccc4[n+]3C)s2)s1.[I-]` [Example Compound 3f]: in experiment [1], the “Overlap between Fluorescence … from 4G8 observed” value is “no correlation and no”; the “Fluorescence from tested compound observed” value was “yes”; the “Fluorescence from 4G8 observed” value is listed as “yes”. Besides, in experiment [2], the “Labelling” value was “labelled both immune-positive NFTs and dystrophic neurites”; the “Fluorescence from tested compound observed” value is reported as “yes”; the “Overlap between Fluorescence from tested compound and fluorescence from AT-100 observed” value is “yes”; the “Fluorescence from AT-100 observed” value is on record as “yes”.

`CC[n+]1c(/C=C/c2ccc(-c3cccs3)s2)sc2ccccc21` [Example Compound 3c]: in experiment [1], the “Overlap between Fluorescence … from 4G8 observed” value is “no correlation and no”; the “Fluorescence from tested compound observed” value is reported as “yes”; the “Fluorescence from 4G8 observed” value is “yes”. Also, in experiment [2], the “Labelling” value was “labelled both immune-positive NFTs and dystrophic neurites”; the “Fluorescence from tested compound observed” value is “yes”; the “Overlap between Fluorescence from tested compound and fluorescence from AT-100 observed” value is recorded as “yes”; the “Fluorescence from AT-100 observed” value was “yes”.

For `CC[n+]1c(/C=C/c2ccc(-c3ccc(C(=O)OC)s3)s2)sc2cc(OC)ccc21.[I-]` [Example Compound 3e], in experiment [1], the “Overlap between Fluorescence … from 4G8 observed” value was “no correlation and no”; the “Fluorescence from tested compound observed” value is on record as “yes”; the “Fluorescence from 4G8 observed” value is reported as “yes”. Further, in experiment [2], the “Labelling” value is “labelled both immune-positive NFTs and dystrophic neurites”; the “Fluorescence from tested compound observed” value is listed as “yes”; the “Overlap between Fluorescence from tested compound and fluorescence from AT-100 observed” value is given as “yes”; the “Fluorescence from AT-100 observed” value is given as “yes”.

Consider `CC[n+]1c(/C=C/c2ccc(-c3ccc[se]3)s2)[se]c2ccc(OC)cc21.[I-]` [Example Compound 3q], for which, in experiment [1], the “Overlap between Fluorescence … from 4G8 observed” value is “no correlation and no”; the “Fluorescence from tested compound observed” value is given as “yes”; the “Fluorescence from 4G8 observed” value was “yes”. In experiment [2], the “Labelling” value was “labelled both immune-positive NFTs and dystrophic neurites”; the “Fluorescence from tested compound observed” value is “yes”; the “Overlap between Fluorescence from tested compound and fluorescence from AT-100 observed” value is reported as “yes”; the “Fluorescence from AT-100 observed” value is recorded as “yes”.

With `CCn1c(/C=C/c2ccc(-c3ccc(C(=O)OC)s3)s2)nc2ccccc21` [Comparative Example 1], in experiment [1], the “Overlap between Fluorescence … from 4G8 observed” value was “yes”; the “Fluorescence from tested compound observed” value is given as “Yes”; the “Staining of / selectivity” value is recorded as “staining towards immune-positive Aβ aggregates, as well as some weak staining of tau-like pathology; also recorded: selectivity for Aβ”; the “Fluorescence from 4G8 observed” value is “yes”.

As for `O=C(O)Cc1cc(-c2ccc(-c3nc4ccccc4s3)s2)sc1-c1cc(C(=O)O)cs1` [Comparative Example 3], in experiment [1], the “Overlap between Fluorescence … from 4G8 observed” value was “yes”; the “Fluorescence from tested compound observed” value is listed as “yes”; the “Staining of / selectivity” value was “staining of both Aβ and tau aggregates; also recorded: no selectivity”; the “Fluorescence from 4G8 observed” value is on record as “yes”.

The values above are taken from patent publication US11434237B2, “Selective ligands for tau aggregates” (KARIN & STEN MORTSTEDT CBD SOLUTIONS AB, priority 2017, dated 2022).
